Laboratory results as given in the NIST ThermoML archive (doi:10.1016/j.jct.2009.03.001).
± gives the expanded uncertainty stated by the source.

Assay: molar enthalpy of vaporization or sublimation
Settings: 298.15 K; Crystal; drop microcalorimetry

**Q.** With `O=[N+]([O-])c1ccc(Cl)cc1Cl` [1,3-dichloro-4-nitrobenzene] as the compound, how does the molar enthalpy read?
**A.** 87.8 ± 3.4 kJ/mol

**Q.** With `O=[N+]([O-])c1cc(Cl)cc(Cl)c1` [1,3-dichloro-5-nitrobenzene] as the compound, how does the molar enthalpy read?
**A.** 83.2 ± 3 kJ/mol

**Q.** For `O=[N+]([O-])c1cc(Cl)ccc1Cl` [1,4-dichloro-2-nitrobenzene], which molar enthalpy is on record?
**A.** 87.4 ± 5 kJ/mol

**Q.** For `O=[N+]([O-])c1ccc(Cl)c(Cl)c1` [3,4-dichloro-1-nitrobenzene], which molar enthalpy is on record?
**A.** 85.8 ± 5 kJ/mol
